The values that follow come from US20130059096A1, “METHODS AND COATINGS FOR TREATING BIOFILMS” (President and Fellows of Harvard College, priority 2010, published 2013).

Where two headings read alike, the source gives them in different places. Some results are limits rather than exact numbers.

For assay [1], the system named is Bacillus subtilis NCIB3610. As to the kind of experiment: Pellicle (biofilm) formation in liquid biofilm-inducing medium. In kind it is cell-based. Conditions: for Biofilm-inhibition assay for B. subtilis: summary statement, concentration not given; for minimum concentration (MIC for Minimal Inhibitory Concentration) needed to prevent biofilm formation: FIG. 2B, complete inhibition of pellicle formation; for Inhibition of biofilm formation (FIG. 5): MSgg medium. The method, then:
(§1) Colony and pellicle formation. For colony formation on solid medium, cells were first grown to exponential growth phase in LB broth and 3 μl of culture were spotted onto solid MSgg medium containing 1.5% Bacto agar. The plates were incubated at 23° C. For pellicle formation in liquid medium, cells were grown to exponential phase and 6 μl of culture were mixed with 6 ml of medium in a 12-well plate (VWR). Plates were incubated at 23° C. Images of colonies and pellicles were taken using a SPOT camera (Diagnostic Instruments, USA).
Preparing conditioned medium. Cells were grown in LB medium to exponential phase. 0.1 ml of culture was added to 100 ml of MSgg medium and grown without shaking in a 500 ml beaker at 23° C. Next, pellicles and conditioned medium was collected by centrifugation at 8,000 rpm for 15 min. The conditioned medium (supernatant fluid) was removed and filtered through a 0.22 μm filter. The filtrates were stored at 4° C. For further purification the biofilm-inhibiting activity was fractionated on a C-18 Sep Pak cartridge using stepwise elution of 0% to 100% methanol with steps of 5%.
To investigate whether mature biofilms produce a factor that triggers biofilm disassembly, the effect of concentrated and partially purified extracts of conditioned medium on pellicle formation when added to fresh medium was assayed. To this end, conditioned medium from an eight-day-old culture was applied to a C18 Sep Pak column. Concentrated eluate from the column was then added to a freshly inoculated culture. […] Further purification of the factor was achieved by eluting the cartridge in step-wise fashion with increasing concentrations of methanol.
Next, the minimum concentration (MIC for Minimal Inhibitory Concentration) needed to prevent biofilm formation was determined.

For another assay, the system named is Bacillus subtilis. As to the kind of experiment: Cell growth in MSgg medium with shaking. It is filed as cell-based. The settings on record: 8.5 mM.
The test system of assay [2] is Pseudomonas aeruginosa PA14. As to the kind of experiment: Biofilm formation on polystyrene, crystal violet staining. It is filed as cell-based. The settings on record: Pseudomonas aeruginosa, read-out: % Inhibition relative to control (0%, <50%, 50-90%, >90%). The method, then:
Crystal violet staining Crystal violet staining was done as described previously (O'Toole et al., Mol. Microbiol. 30:295 (1998)) except that the cells were grown in 6-well plates. Wells were stained with 500 μl of 1.0% Crystal-violet dye, rinsed twice with 2 ml double-distilled water and thoroughly dried.
P. aeruginosa strain […] was grown in 12-well polystyrene plates for 48 hours at 30° C. in M63 medium containing glycerol (0.2%) and Casamino acids (20 μg/ml). Additionally added to the wells were no amino acids (untreated), D-tyrosine or the D-amino acid equimolar mixture. Cells bound to the polystyrene were visualized by washing away unbound cells and then staining with crystal violet. Wells were stained with 500 μl of 1.0% Crystal-violet dye, rinsed twice with 2 ml double-distilled water and thoroughly dried.
For experiments reported in Table 1, the organism/strain was S.a. Harvard SCO1, the culture medium was TSB and the cell inoculation was at 2×10^9 cfu. For experiments reported in Table 2, the organism/strain was […], the culture medium was M63 and the cell inoculation was at 1.5×10^9 cfu. Biofilm was visualized using the crystal violet method.

The subject of assay [3] is Bacillus subtilis NCIB3610. As to the kind of experiment: Colony biofilm formation on solid MSgg medium. Conditions: 8.5 mM, 4 days. It is filed as cell-based. The method, then: as §1
The test system of assay [4] is matrix operons eps and yqxM. As to the kind of experiment: Expression of PyqxM-lacZ and PepsA-lacZ (β-galactosidase activity). It is filed as cell-based, Bacillus subtilis. Conditions: 8.5 mM, strains FC122 and FC5, MSgg, shaking. The method, then: Assays of β-galactosidase activity. Cells were cultured in MSgg medium at 37° C. in a water bath with shaking 1 ml of culture was collected at each time point. β-galactosidase activity was determined as described previously (Chai et al., Mol. Microbiol. 67:254 (2008)).

The next assay concerns S. aureus (strain SCO1). In words: Biofilm formation on polystyrene, crystal violet staining. In kind it is cell-based, Staphylococcus aureus. The settings on record: Staphylococcus aureus, read-out: % Inhibition relative to control (0%, <50%, 50-90%, >90%). The method, then: Crystal violet staining Crystal violet staining was done as described previously (O'Toole et al., Mol. […] Wells were stained with 500 μl of 1.0% Crystal-violet dye, rinsed twice with 2 ml double-distilled water and thoroughly dried.
The effect of D-amino acids on biofilm formation by other bacteria was examined. The pathogenic bacterium Staphylococcus aureus forms biofilms on plastic surfaces (Otto, Curr. Top. Microbiol. Immunol. 322:207 (2008)), which can be detected by washing away unbound cells and staining the bound cells with crystal violet. […] Additionally added to the wells were no amino acids (untreated), D-tyrosine (50 μM) or the D-amino acid mixture ([…] each). Cells bound to the polystyrene were visualized by washing away unbound cells and then staining with crystal violet.
For experiments reported in Table 1, the organism/strain was S.a. Harvard SCO1, the culture medium was TSB and the cell inoculation was at 2×10^9 cfu. For experiments reported in Table 2, the organism/strain was […], the culture medium was M63 and the cell inoculation was at 1.5×10^9 cfu. Biofilm was visualized using the crystal violet method. The data is shown below in Tables 1 and 2:
For experiments reported in Tables 3 and 4, the organism/strain was S.a. Harvard SCO1, the culture medium was TSB and the cell inoculation was at 2×10^9 cfu. Biofilm was visualized using the crystal violet method.

Another assay relates to P.a. Harvard PA14. As to the kind of experiment: Biofilm (colony architecture) formation on defined M63 medium. In kind it is cell-based, Pseudomonas aeruginosa. The settings on record: 500 μM. The source says:
Similarly to Bacillus subtilis, Pseudomonas aeruginosa forms a complex architecture on defined medium. These complex structures require the proper formation and assembly of the extra-cellular matrix. […] For these experiments, the organism/strain was P.a. Harvard PA14, the culture medium was M63 and the cell inoculation was at 1.5×10^9 cfu.

A further assay has as its system Pseudomonas aeruginosa. As to the kind of experiment: Attached single cells in well plate, Syto-9 staining. The settings on record: Pseudomonas aeruginosa, 12 h, read-out: % Inhibition relative to control (0%, <50%, 50-90%, >90%). In kind it is cell-based. The method, then: An alternative method to observe biofilm formation on a 6 well plate with or without D-amino acids and using Syto-9 staining was as follows: Pseudomonas aeruginosa biofilms were washed twice with PBS and then fixed for at least an hour in 5% Glutaraldehyde in PBS. The fixed biofilms were then rinsed once again with PBS and soaked in 0.1% v/v Triton X-100 in PBS (PBST) for 15 minutes. The solution was exchanged with 0.1 nM […] (Invitrogen) in cold PBST and gently rocked in the dark for at least 15 minutes. Fluorescence images of the biofilms were captured with a Leica DMRX compound microscope using a Xe lamp and a K3 Leica filtercube. […] The amount of attached single cells was quantified using image J. The decrease in the amount of cells attached to the epoxy surfaces soaked with D-aa compared with the L-aa control was substantially more.

Where [5] appears, read: PA14, Table 2, 100 nM, 48 h/30° C., polystyrene, M63.
The mark [6] stands for this setting: Table 1, 100 nM, 24 h/37° C., polystyrene, TSB.
[7] abbreviates: Table 1, 10 μM, 24 h/37° C., polystyrene, TSB.
[8] abbreviates: Table 1, 100 μM, 24 h/37° C., polystyrene, TSB.
Where [9] appears, read: Table 1, 500 μM, 24 h/37° C., polystyrene, TSB.
The mark [10] stands for this setting: Table 3, 10 μM, 24 h/37° C., polystyrene, TSB.
The mark [11] stands for this setting: Table 3, 100 μM, 24 h/37° C., polystyrene, TSB.
The mark [12] stands for this setting: Table 3, 500 μM, 24 h/37° C., polystyrene, TSB.

As for `C[C@@H](N)C(=O)O` [D-alanine], the “Biofilm-inhibition assay for B. subtilis” value in assay [1] is recorded as “not effective”.
Regarding `CC(C)C[C@@H](N)C(=O)O` [D-leucine], in the assay on Bacillus subtilis, the “Cell growth (FIG. 8)” value is reported as “substantially the same as the untreated sample”. The inhibition at 0.1 µM (in assay [2] (setting [5]); in the assay on S. aureus (strain SCO1) (setting [6])) was 0% throughout. Further, the inhibition at 10 µM came to 0% in assay [2] (PA14, Table 2, 10 μM, 48 h/30° C., polystyrene, M63) and 0% in the assay on S. aureus (strain SCO1) (setting [7]). Moreover, the inhibition at 100 µM in assay [2] (PA14, Table 2, 100 μM, 48 h/30° C., polystyrene, M63) worked out at 0%; in the assay with S. aureus (strain SCO1) (setting [8]), 0%. Moreover, the inhibition at 500 µM is 0% in assay [2] (PA14, Table 2, 500 μM, 48 h/30° C., polystyrene, M63) and 0% with S. aureus (strain SCO1) (setting [9]). Moreover, in assay [1] (8.5 mM, freshly inoculated culture, biofilm-inducing medium, 3 days), the “Effect on pellicle formation (FIG. 2A)” value was “significant inhibition of biofilm growth”. Besides, in assay [1], the “minimum concentration (MIC for Minimal Inhibitory Concentration) needed to prevent biofilm formation” value was “around 1 mM”. For the same compound, the “Biofilm-inhibition assay for B. subtilis” value in assay [1] is listed as “significant inhibition of biofilm growth”. The “Biofilm formation on solid MSgg medium (FIG. 6)” value in assay [3] is recorded as “inhibited biofilm formation”. Further, the “yqxM and eps expression (FIG. 9A, 9B)” value in assay [4] is “substantially the same as the untreated sample”.
Take `CSCC[C@@H](N)C(=O)O` [D-methionine]: the inhibition at 0.1 µM (in assay [2] (setting [5]); with S. aureus (strain SCO1) (setting [6])) was 0% in each case. Also, in assay [1] (2 mM, 3 days), the “Inhibition of biofilm formation (FIG. 5)” value is recorded as “active in inhibiting biofilm formation”. In assay [1], the “minimum concentration (MIC for Minimal Inhibitory Concentration) needed to prevent biofilm formation” value is listed as “around 1 mM”. Moreover, the “Biofilm-inhibition assay for B. subtilis” value in assay [1] is listed as “significant inhibition of biofilm growth”. Besides, in the assay on S. aureus (strain SCO1) (setting [7]), the inhibition at 10 µM was 0%. For the same compound, the inhibition at 100 µM in the assay with S. aureus (strain SCO1) (setting [8]) is 0%. The inhibition at 500 µM with S. aureus (strain SCO1) (setting [9]) was 0%.
Regarding `N[C@H](Cc1ccccc1)C(=O)O` [D-phenylalanine], the “Biofilm-inhibition assay for B. subtilis” value in assay [1] was “not effective”. For the same compound, in the assay with S. aureus (strain SCO1) (setting [10]), the inhibition at 10 µM is < 50%. Further, in the assay with S. aureus (strain SCO1) (setting [11]), the inhibition at 100 µM was < 50%. In addition, the inhibition at 500 µM in the assay with S. aureus (strain SCO1) (setting [12]) is > 90%.
On to `O=C(O)[C@H]1CCCN1` [D-proline], for which the inhibition at 10 µM in the assay with S. aureus (strain SCO1) (setting [10]) is < 50%. The inhibition at 100 µM in the assay with S. aureus (strain SCO1) (setting [11]) is < 50%. Besides, in the assay on S. aureus (strain SCO1) (setting [12]), the inhibition at 500 µM was > 90%. Further, the inhibition at 1000 µM with S. aureus (strain SCO1) (Table 3, 1 mM, 24 h/37° C., polystyrene, TSB) is > 90%.
As to `N[C@H](Cc1c[nH]c2ccccc12)C(=O)O` [D-tryptophan], in assay [2] (PA14, 48 h), the inhibition at 0.1 µM stood at 0%, the inhibition at 10 µM was < 50%, the inhibition at 100 µM was in the range of 50 to 90% and the inhibition at 500 µM lay within 50 to 90%. For the same compound, in assay [1] (0.5 mM, 3 days), the “Inhibition of biofilm formation (FIG. 5)” value is recorded as “active in inhibiting biofilm formation”. Besides, in assay [1], the “minimum concentration (MIC for Minimal Inhibitory Concentration) needed to prevent biofilm formation” value is listed as “around 1 mM” and the “Biofilm-inhibition assay for B. subtilis” value was “significant inhibition of biofilm growth”. In the assay with S. aureus (strain SCO1) (24 h), the inhibition at 0.1 µM was 0%, the inhibition at 10 µM came out at 0%, the inhibition at 100 µM is < 50% and the inhibition at 500 µM is < 50%. Besides, the “Biofilm formation on defined medium (FIG. 20)” value (from here on “Biofilm formation … (FIG. 20)”) in the assay with P.a. Harvard PA14 was “inhibited biofilm formation”.
On to `CSCC[C@H](N)C(=O)O` [L-methionine, reference compound], for which the “Inhibition of biofilm formation (FIG. 5)” value in assay [1] (5 mM, 3 days) is “Only the D-amino acids were active”.
Turning to `N[C@@H](Cc1c[nH]c2ccccc12)C(=O)O` [L-tryptophan, reference compound], in assay [1] (5 mM, 3 days), the “Inhibition of biofilm formation (FIG. 5)” value is “Only the D-amino acids were active”. The “Biofilm formation … (FIG. 20)” value with P.a. Harvard PA14 is given as “did not”.
As to `N[C@@H](Cc1ccc(O)cc1)C(=O)O` [L-tyrosine, reference compound], in the assay with Pseudomonas aeruginosa, the inhibition at 500 µM is 0%. The “Biofilm formation … (FIG. 20)” value in the assay on P.a. Harvard PA14 is “did not”.
